Assay results reported in PMC10447463, “Data-mining unveils structure–property–activity correlation of viral infectivity enhancing self-assembling peptides” (Nature Communications, 2023).
Read-outs that look alike come from different tables or passages of the source.

Tests used:
[1] = test system: HIV-1 infection of TZM-bl cells; test: HIV-1 infectivity enhancement assay, β-galactosidase luminescence; format: cell-based
[2] = format: physicochemical; set-up: key to Fibril / Fibril Formation / TEM 2cat / Fibril: 1 = fibrils present; 0 non-fibrillar structures; settings: for Fibril / Fibril Formation: TEM, 1 mg/mL, uranyl acetate stain, qualitative
[3] = Zeta-potential measurement; format: physicochemical; settings: for Zeta-pot. / mV: zeta potential of peptide, Fig S15 source data; for Zeta-Potential / mV: Figure 6C
Procedure, shortened: (§1)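 One-day room-temperature aggregation at 1 mg/mL in PBS (pH 7.4) preceded measurement; samples then went into 1 mM KCl. Triplicates per sample, two independent experiments averaged.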

[4] = Turbidity, derived count rate of scattered light; format: physicochemical; settings: for Count Rate / kcps: derived count rate of scattered light at 633 nm, 173°, from zeta-potential measurement, 0.1 mg/mL in 1 mM KCl after 1 d at 1 mg/mL in PBS, turbidity / microscopic aggregation, mean of triplicate; for Log Count Rate: log of derived count rate; for Count Rate: turbidity
Procedure, shortened: as §1

[5] = Feb2021 run; infectivity n-fold relative to virus alone
[6] = Feb2021 run; log10 of infectivity relative to EF-C
[7] = Feb2021 run; n-fold infectivity relative to EF-C
[8] = infectivity class (low / medium / high) of each library peptide; main list in c1-c6, same classes repeated in sub-lists of sequences containing the hydrophobicity/charge patterns P+,H0,P+,H0,P0,H0,P0; P+,H0,P0,H0,P0,H0,P0; P+,H0,P0,H0
[9] = log10 of HIV-1 infection of TZM-bl cells relative to EF-C; Fig S15 source data; asymmetric std dev errors
[10] = derived count rate of scattered light, mean, std deviation in separate column
[11] = Feb2021; figures match the 1.3 µM column
[12] = Feb2021; infectivity relative to virus only
[13] = Feb2021; log10 of infectivity relative to EF-C
[14] = Feb2021; n-fold infectivity relative to EF-C
[15] = infectivity class (low / medium / high) of the peptide in the sequence-pattern analysis, Fig. S22-A4; class limits not given
[16] = derived count rate of scattered light
[17] = log10 of infection relative to EF-C, Figure 6C
[18] = n-fold infection vs virus only, relative to that of EF-C, 1.3 µM peptide
[19] = log10 of derived count rate of scattered light, Figure 6C
[20] = logarithm of count rate in kcps
[21] = infectivity enhancement relative to EF-C (=1); Feb2021 run
[22] = infectivity n-fold relative to virus only; Feb2021 run
[23] = log10 of infectivity relative to EF-C; Feb2021 run
[24] = derived count rate from zeta measurement, mean
[25] = Fig S8 panels B, D; infectivity enhancement relative to EF-C
[26] = Fig S8 panels B, D; infectivity n-fold relative to virus alone
[27] = Fig S8 panels A, C, asymmetric log errors
[28] = Fig S8 panels B, D, derived count rate of scattered light

Substance	n-fold to virus (Feb2021) [1, 5]	Log10 of Rel to EFC (Feb2021) [1, 6]	Rel-to EFC (Feb-2021) [1, 7]	infectivity [1, 8]	Log10 Inf. rel. to EF-C [1, 9]	TEM: 1= fibrils, 0= aggregates (micelle), 0.5 = aggregates and fibrils, -1 = nothing obersved, STD prep [2]	Zeta category ( +1 = if > 4 mV;-1 = if < -4 mV; 0 = -4mV to 4 mV) [3]	Zeta Pot. / mV ([3]; mean, Std in separate column) [mV]	Zeta-pot. / mV [3] [mV]	Zeta Count Rate / kcps [4, 10] [kcps]	infectivity [1, 15]	other results
KFKFQFNMW [BL5 / KB13]	18.76	-0.3503	0.4464	medium	-0.3503	1	1 (+1 = if > 4 mV)	22.6	22.6	610.2	–	–
KFKQFFINMWQ [VH14]	–	–	–	–	-0.03603	0	1 (+1 = if > 4 mV)	–	7.99	–	high	Absolute Infectivity / RLU /s (Feb2021) [1, 11]: 14953.33333 RLU /s; n-fold to virus (Feb2021) [1, 12]: 38.67; Log10 of Rel to EFC (Feb2021) [1, 13]: -0.03603; Rel-to EFC (Feb-2021) [1, 14]: 0.9204; Zeta Pot. / mV [3]: 7.99 mV; Zeta Count Rate Category ([4]; category 1 / 0, no key given): 1; Zeta Count Rate / kcps [4, 16]: 8996 kcps
KFQFNMW	–	–	–	–	–	–	–	–	–	–	–	Log10 Infection Rel EF-C [1, 17]: -0.7437; Inf. rel. EF-C [1, 18]: 0.18; Fibril / Fibril Formation [2]: 1; Zeta-Potential / mV ([3]; mean): 8.763 mV; Count Rate / kcps [4]: 331.6 kcps; Log10 Count Rate [4, 19]: 2.521; Log10 Count Rate [4, 20]: 2.521
KIKIKIKI [TM13]	1.369	-1.487	0.03258	–	-1.487	0	1 (+1 = if > 4 mV)	5.46	5.46	155.1	low	–
KIKIKIKIWW [TM21]	15.73	-0.4266	0.3744	medium	-0.4266	0	1 (+1 = if > 4 mV)	15.4	15.4	9436	–	–
KIKIKIKIWWWW [TM12]	24.74	-0.2301	0.5888	medium	-0.2301	0	1 (+1 = if > 4 mV)	15.2	15.2	12420.6	–	–
KIKIQII [TG1 / (KM4)]	0.7843	-1.729	0.01867	low	-1.729	1	1 (+1 = if > 4 mV)	5.61	5.61	1039	low	Absolute Infectivity / RLU /s (Feb2021) [1, 11]: 400 RLU /s; n-fold to virus (Feb2021) [1, 12]: 0.7843; Log10 of Rel to EFC (Feb2021) [1, 13]: -1.729; Rel-to EFC (Feb-2021) [1, 14]: 0.01867; Rel-to EFC (Feb-2021) [1, 21]: 0.01867; n-fold to virus (Feb2021) [1, 22]: 0.7843; Log10 of Rel to EFC (Feb2021) [1, 23]: -1.729; Zeta Pot. / mV [3]: 5.61 mV; Zeta Count Rate Category ([4]; category 1 / 0, no key given): 1; Zeta Count Rate / kcps [4, 24]: 1039 kcps; Zeta Count Rate / kcps [4, 16]: 1039 kcps; Zeta Count Rate Category ([4]; key not given): 1
KIKIQIII [TG7]	14.84	-0.452	0.3531	medium	-0.4521	1	1 (+1 = if > 4 mV)	19.8	19.8	94.97	–	Absolute Infectivity / RLU /s (Feb2021) [1, 11]: 8260 RLU /s; n-fold to virus (Feb2021) [1, 12]: 14.84; Log10 of Rel to EFC (Feb2021) [1, 13]: -0.452; Rel-to EFC (Feb-2021) [1, 14]: 0.3531; Rel-to EFC (Feb-2021) [1, 21]: 0.3531; n-fold to virus (Feb2021) [1, 22]: 14.84; Log10 of Rel to EFC (Feb2021) [1, 23]: -0.452; Zeta Pot. / mV [3]: 19.8 mV; Zeta Count Rate Category ([4]; category 1 / 0, no key given): 0; Zeta Count Rate / kcps [4, 24]: 94.97 kcps; Zeta Count Rate / kcps [4, 16]: 94.97 kcps; Zeta Count Rate Category ([4]; key not given): 0
KIKIQIN [JGB3]	11.14	-0.5766	0.2651	medium	-0.5766	1	0 (0 = -4mV to 4 mV)	3.34	3.34	43.43	–	Rel-to EFC [1, 25]: 0.2651; n-fold to virus [1, 26]: 11.14; Log Count Rate [4, 27]: 1.638; Log Count Rate ([4]; Fig S8 panels B, D): 1.638; Count Rate [4, 28]: 43.43
KIKIQINMWQRGD [VH17-II]	0.5086	-1.917	0.0121	low	-1.917	0	0 (0 = -4mV to 4 mV)	1.69	1.69	2783	low	–
KIKIQINMWWQ [VH11]	134.825	0.5063	3.209	high	0.5063	0.5	1 (+1 = if > 4 mV)	11.8	11.8	3893	high	–
KIKIQINMWWWQ [VH12]	115.5	0.4391	2.749	high	0.4391	0.5	1 (+1 = if > 4 mV)	9.45	9.45	7596.3	high	–
KIKIQIW [TM69]	5.89	-0.8533	0.1402	medium	-0.8533	1	1 (+1 = if > 4 mV)	12.5	12.5	144.9	–	Absolute Infectivity / RLU /s (Feb2021) [1, 11]: 4280 RLU /s; n-fold to virus (Feb2021) [1, 12]: 5.89; Log10 of Rel to EFC (Feb2021) [1, 13]: -0.8533; Rel-to EFC (Feb-2021) [1, 14]: 0.1402; Zeta Pot. / mV [3]: 12.5 mV; Zeta Count Rate Category ([4]; category 1 / 0, no key given): 1; Zeta Count Rate / kcps [4, 16]: 144.9 kcps
KIKIWIW	–	–	–	–	–	–	–	–	–	–	–	Log10 Infection Rel EF-C [1, 17]: -0.4875; Inf. rel. EF-C [1, 18]: 0.33; Fibril / Fibril Formation [2]: 1; Zeta-Potential / mV ([3]; mean): 17.23 mV; Count Rate / kcps [4]: 607.7 kcps; Log10 Count Rate [4, 19]: 2.784; Log10 Count Rate [4, 20]: 2.784
KIKQIIN [JGA3]	–	–	–	low	-1.4	0.5	-1 (-1 = if < -4 mV)	-11.7	-11.7	–	–	Rel-to EFC [1, 25]: 0.0398; n-fold to virus [1, 26]: 1.672; Rel-to EFC (Feb-2021) [1, 21]: 0.0398; n-fold to virus (Feb2021) [1, 22]: 1.672; Log10 of Rel to EFC (Feb2021) [1, 23]: -1.4; Log Count Rate [4, 27]: 1.806; Log Count Rate ([4]; Fig S8 panels B, D): 1.806; Count Rate [4, 28]: 64.03; Zeta Count Rate / kcps [4, 24]: 64.03 kcps; Zeta Count Rate Category ([4]; key not given): 0
